Data: patent publication US6737383B1, “Herbicidal oxadiazolidines” (priority 1999, dated 2004)

How the values were obtained:
surinam grass = test: Test B pre/postemergence surinam grass; type: in vivo, Brachiaria decumbens
Outline: (§1)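 Response is a visual 0-to-10 score relative to untreated plants, where 0 means no effect and 10 means complete control, taken twelve to sixteen days after application. Treatments went onto soil at planting and onto foliage of 1- to 4-leaf plants, using a surfactant-containing non-phytotoxic solvent.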

crabgrass = test: Test B pre/postemergence crabgrass; type: in vivo, Digitaria sanguinalis
Outline: as §1

duck salad = test: Test B flood test duck salad; type: in vivo, Heteranthera limosa
Outline: (§2)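 Read-out is a visual response score from 0 (no effect) to 10 (complete control), assigned by comparison with untreated controls. Treatment was applied at the 2-leaf stage, and plants stayed in the greenhouse for twelve to sixteen days before scoring.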

sugar beet = test: Test B pre/postemergence sugar beet; type: in vivo, Beta vulgaris
Outline: as §1

rice = test: Test B flood test rice; type: in vivo, Oryza sativa
Outline: as §2

bedstraw = test: Test B pre/postemergence bedstraw; type: in vivo, Galium aparine
Outline: as §1

blackgrass = test: Test B pre/postemergence blackgrass; type: in vivo, Alopecurus myosuroides
Outline: as §1

cocklebur = test: Test B pre/postemergence cocklebur; type: in vivo, Xanthium strumarium
Outline: as §1

velvetleaf = test: Test B pre/postemergence velvetleaf; type: in vivo, Abutilon theophrasti
Outline: as §1

wheat = test: Test B pre/postemergence wheat; type: in vivo, Triticum aestivum
Outline: as §1

wild oat = test: Test B pre/postemergence wild oat; type: in vivo, Avena fatua
Outline: as §1

purple nutsedge = test: Test B pre/postemergence purple nutsedge; type: in vivo, Cyperus rotundus
Outline: as §1

soybean = test: Test B pre/postemergence soybean; type: in vivo, Glycine max
Outline: as §1

corn = test: Test B pre/postemergence corn; type: in vivo, Zea mays
Outline: as §1

smallflower flatsedge = test: Test B flood test smallflower flatsedge; type: in vivo, Cyperus difformis
Outline: as §2

bamyardgrass = test: Test B flood test barnyardgrass; type: in vivo, Echinochloa crus-galli
Outline: as §2

[1] = Postemergence, Rate 62 g/ha, scale 0 to 10, 0 is no effect, 10 is complete control
[2] = Postemergence, Rate 250 g/ha, scale 0 to 10, 0 no effect, 10 complete control
[3] = Preemergence, Rate 62 g/ha, scale 0 to 10, 0 is no effect, 10 is complete control
[4] = Preemergence, Rate 125 g/ha, scale 0 to 10 (0 no effect, 10 complete control)
[5] = Preemergence, Rate 250 g/ha, scale of 0 to 10 where 0 is no effect and 10 is complete control
[6] = Preemergence, Rate 500 g/ha, scale 0 (no effect) to 10 (complete control)
[7] = Rate 125 g/ha, Postemergence, scale 0 to 10, 0 no effect, 10 complete control
[8] = Rate 500 g/ha, Postemergence, 0 to 10 scale (0 no effect, 10 complete control)
[9] = Rate 31 g/ha, Postemergence section (flood test species), scale 0 to 10
[10] = Rate 125 g/ha, Postemergence section (flood test species), scale 0 to 10, 0 no effect, 10 complete control
[11] = flood test, listed under Postemergence, Rate 250 g/ha, scale 0 to 10, 0 no effect, 10 complete control

## CC(C)N(C(=O)n1oc(=O)n(-c2ccccc2OC(F)(F)F)c1=O)c1ccc(F)cc1 [Compound 14]
Surinam grass; [1]
  B. signalgrass plant response rating: 0
Surinam grass; [2]
  B. signalgrass plant response rating: 0
Surinam grass; [3]
  Plant response rating, B. signalgrass: 0
Surinam grass; [4]
  Plant response rating, B. signalgrass: 0
Surinam grass; [5]
  Plant response rating, B. signalgrass: 0
Surinam grass; [6]
  B. signalgrass plant response rating: 2
Surinam grass; [7]
  B. signalgrass plant response rating: 0
Surinam grass; [8]
  B. signalgrass plant response rating: 0
crabgrass; [1]
  Crabgrass plant response rating: 0
crabgrass; [2]
  Crabgrass plant response rating: 0
crabgrass; [3]
  Plant response rating, Crabgrass: 0
crabgrass; [4]
  Plant response rating, Crabgrass: 0
crabgrass; [5]
  Plant response rating, Crabgrass: 9
crabgrass; [6]
  Crabgrass plant response rating: 9
crabgrass; [7]
  Crabgrass plant response rating: 0
crabgrass; [8]
  Crabgrass plant response rating: 8
Duck salad; [1]
  Ducksalad plant response rating: 0
Duck salad; [9]
  Ducksalad plant response rating: 0
Duck salad; [10]
  Ducksalad plant response rating: 0
Duck salad; [11]
  Ducksalad plant response rating: 0
Sugar beet; [1]
  Sugarbeets plant response rating: 0
Sugar beet; [2]
  Sugarbeets plant response rating: 0
Sugar beet; [3]
  Plant response rating, Sugarbeets: 0
Sugar beet; [4]
  Plant response rating, Sugarbeets: 0
Sugar beet; [5]
  Plant response rating, Sugarbeets: 0
Sugar beet; [6]
  Sugarbeets plant response rating: 0
Sugar beet; [7]
  Sugarbeets plant response rating: 0
rice; [1]
  Rice plant response rating: 0
rice; [9]
  Rice plant response rating: 0
rice; [10]
  Rice plant response rating: 0
rice; [11]
  Rice plant response rating: 0
bedstraw; [1]
  Bedstraw plant response rating: 0
bedstraw; [2]
  Bedstraw plant response rating: 0
bedstraw; [3]
  Plant response rating, Bedstraw: 0
bedstraw; [4]
  Plant response rating, Bedstraw: 0
bedstraw; [5]
  Plant response rating, Bedstraw: 0
bedstraw; [6]
  Bedstraw plant response rating: 4
bedstraw; [7]
  Bedstraw plant response rating: 0
bedstraw; [8]
  Bedstraw plant response rating: 1
blackgrass; [1]
  Blackgrass plant response rating: 0
blackgrass; [2]
  Blackgrass plant response rating: 0
blackgrass; [3]
  Plant response rating, Blackgrass: 0
blackgrass; [4]
  Plant response rating, Blackgrass: 0
blackgrass; [5]
  Plant response rating, Blackgrass: 0
blackgrass; [6]
  Blackgrass plant response rating: 2
blackgrass; [7]
  Blackgrass plant response rating: 0
blackgrass; [8]
  Blackgrass plant response rating: 3
cocklebur; [1]
  Cocklebur plant response rating: 0
cocklebur; [2]
  Cocklebur plant response rating: 0
cocklebur; [3]
  Plant response rating, Cocklebur: 0
cocklebur; [4]
  Plant response rating, Cocklebur: 0
cocklebur; [5]
  Plant response rating, Cocklebur: 0
cocklebur; [6]
  Cocklebur plant response rating: 0
cocklebur; [7]
  Cocklebur plant response rating: 0
cocklebur; [8]
  Cocklebur plant response rating: 0
velvetleaf; [1]
  Velvetleaf plant response rating: 0
velvetleaf; [2]
  Velvetleaf plant response rating: 0
velvetleaf; [3]
  Plant response rating, Velvetleaf: 0
velvetleaf; [4]
  Plant response rating, Velvetleaf: 0
velvetleaf; [5]
  Plant response rating, Velvetleaf: 0
velvetleaf; [6]
  Velvetleaf plant response rating: 0
velvetleaf; [7]
  Velvetleaf plant response rating: 0
wheat; [1]
  Wheat plant response rating: 0
wheat; [2]
  Wheat plant response rating: 0
wheat; [3]
  Plant response rating, Wheat: 0
wheat; [4]
  Plant response rating, Wheat: 0
wheat; [5]
  Plant response rating, Wheat: 0
wheat; [6]
  Wheat plant response rating: 0
wheat; [7]
  Wheat plant response rating: 0
Wild oat; [1]
  Wild oats plant response rating: 0
Wild oat; [2]
  Wild oats plant response rating: 0
Wild oat; [4]
  Plant response rating, Wild oats: 0
Wild oat; [5]
  Plant response rating, Wild oats: 0
Wild oat; [6]
  Wild oats plant response rating: 0
Wild oat; [7]
  Wild oats plant response rating: 0
Purple nutsedge; [1]
  Nutsedge plant response rating: 0
Purple nutsedge; [2]
  Nutsedge plant response rating: 0
Purple nutsedge; [3]
  Plant response rating, Nutsedge: 0
Purple nutsedge; [4]
  Plant response rating, Nutsedge: 0
Purple nutsedge; [5]
  Plant response rating, Nutsedge: 0
Purple nutsedge; [6]
  Nutsedge plant response rating: 0
Purple nutsedge; [7]
  Nutsedge plant response rating: 0
Purple nutsedge; [8]
  Nutsedge plant response rating: 0
soybean; [1]
  Soybean plant response rating: 2
soybean; [2]
  Soybean plant response rating: 2
soybean; [3]
  Plant response rating, Soybean: 0
soybean; [4]
  Plant response rating, Soybean: 0
soybean; [5]
  Plant response rating, Soybean: 0
soybean; [6]
  Soybean plant response rating: 0
soybean; [7]
  Soybean plant response rating: 2
corn; [1]
  Corn plant response rating: 0
corn; [2]
  Corn plant response rating: 0
corn; [3]
  Plant response rating, Corn: 0
corn; [4]
  Plant response rating, Corn: 0
corn; [5]
  Plant response rating, Corn: 0
corn; [6]
  Corn plant response rating: 4
corn; [7]
  Corn plant response rating: 0
corn; [8]
  Corn plant response rating: 0
Smallflower flatsedge; [1]
  S. Flatsedge plant response rating: 0
Smallflower flatsedge; [10]
  S. Flatsedge plant response rating: 0
Smallflower flatsedge; [11]
  S. Flatsedge plant response rating: 0
bamyardgrass; [1]
  Barnyardgrass plant response rating: 0
bamyardgrass; [9]
  Barnyardgrass plant response rating: 0
bamyardgrass; [10]
  Barnyardgrass plant response rating: 0
bamyardgrass; [11]
  Barnyardgrass plant response rating: 0
